Laboratory results as given in article PMC8833476, “Short-Term Effects of Temperature and Thyrotropin-Releasing Hormone Stimulation on Adrenocorticotropin Stability in Horses” (Animals : an Open Access Journal from MDPI, 2022).

Assays:
[1] = room temperature (21 °C), analyzed prior to 8 h; mostly PPID-negative horses; cited from earlier work
Source text: In contrast, our study found t ...

[2] = delaying centrifugation of horse blood by 1 h; cited from earlier work
[3] = Short-term stability of immunoreactive ACTH in whole blood stored 1 h at 4, 20, 30, 40 or 70 °C; format: in vitro ADME, horse; conditions: for Mean change of immunoreactive ACTH concentration after 1 h: whole blood 1 h at 20 °C vs 4 °C; for ACTH concentration as percentage of the reference sample (4 °C = 100%), range over horses: equine EDTA whole blood
Description: For horses that underwent TRH stimulation, blood was collected 30 min after receiving 1 mg of TRH intravenously (Sigma-Aldrich Pty Ltd. (subsidiary of Merck), North Ryde BC, New South Wales, Australia). Blood was sampled between 7 and 8 am. All procedures were approved by the University of Queensland Animal Ethics Committee, approval number SVS/474/17, 22nd December 2017.
Samples were taken to the laboratory within 1 h of collection. They were then stored as whole blood either in a temperature-monitored refrigerator (4 °C), in a temperature-controlled room (20 °C), or in incubators (30, 40, or 70 °C) for 1 h. Samples were then centrifuged at 3500× g at 4 °C for 10 min. The plasma was separated and analyzed within 2 h of collection from the horse. […] Due to the necessity of analyzing all samples within a 2-h window from collection, and limitations on the speed of the analyzer, the 15 horses were sampled over a 4-day period. The samples from each horse were run using the same kit.
The reference sample was defined as the sample stored at 4 °C.

[4] = human blood samples at room temperature; cited from earlier work

| Substance | Difference between samples kept at room temperature and at 4 °C [1] | Mean reduction in the measured ACTH concentration [2] [pg/mL] | Mean change of immunoreactive ACTH concentration after 1 h ([3]; PPID horses) [%] | Bland–Altman mean bias of ACTH concentration, 4 versus 20 °C ([3]; equine EDTA whole blood stored 1 h at 20 °C vs 4 °C reference, then centrifuged, plasma immunoreactive ACTH by Immulite 1000 chemiluminescent assay, 15 horses) [pg/mL] | Bland–Altman mean bias of ACTH concentration, 4 versus 30 °C ([3]; equine EDTA whole blood stored 1 h at 30 °C vs 4 °C reference, Immulite 1000 chemiluminescent assay, 15 horses) [pg/mL] | Bland–Altman mean bias of ACTH concentration, 4 versus 40 °C ([3]; equine EDTA whole blood stored 1 h at 40 °C vs 4 °C reference, Immulite 1000 chemiluminescent assay, 15 horses) [pg/mL] | Bland–Altman mean bias of ACTH concentration, 4 versus 70 °C ([3]; equine EDTA whole blood stored 1 h at 70 °C vs 4 °C reference, Immulite 1000 chemiluminescent assay, only 9 of 15 samples analysable) [pg/mL] | ACTH concentration as percentage of the reference sample (4 °C = 100%), range over horses ([3]; 1 h at 20 °C, Immulite 1000 chemiluminescent assay, 15 horses (PPID and non-PPID, basal and post-TRH), not significant) [%] | ACTH concentration as percentage of the reference sample (4 °C = 100%), range over horses ([3]; 1 h at 30 °C, Immulite 1000, 15 horses, not significant) [%] | ACTH concentration as percentage of the reference sample (4 °C = 100%), range over horses ([3]; 1 h at 40 °C, Immulite 1000, 15 horses, not significant) [%] | ACTH concentration as percentage of the reference sample (4 °C = 100%), range over horses ([3]; 1 h at 70 °C, Immulite 1000, 9 of 15 samples analysable (solidification), p = 0.001) [%] | Mean change of immunoreactive ACTH concentration after 1 h ([3]; non-PPID horses) [%] | Measured ACTH concentration, reference sample ([3]; one non-PPID horse, post-TRH stimulation, whole blood 1 h at 4 °C, single horse) [pg/mL] | Measured ACTH concentration after storage ([3]; one non-PPID horse, post-TRH stimulation, whole blood 1 h at 20 °C, single horse) [pg/mL] | Measured ACTH concentration after storage ([3]; one non-PPID horse, post-TRH stimulation, whole blood 1 h at 40 °C, single horse) [pg/mL] | Deviation of measured ACTH concentration above the same sample stored at 4 °C ([3]; whole blood 1 h at 20 °C, maximum over horses) | Time at room temperature prior to centrifugation at which the measured ACTH concentration is altered [4] [h] |
| --- | --- | --- | --- | --- | --- | --- | --- | --- | --- | --- | --- | --- | --- | --- | --- | --- | --- |
| adrenocorticotropic hormone [ACTH] | no difference | 11.6 | 5 | -2.8 | -1.38 | -0.16 | 10.1 | 84.3 to 122.1 | 89.4 to 115.6 | 86.5 to 116.3 | 72 to 94.4 | 12 | 60.9 | 69.1 | 70.8 | up to 22% |  |
| human ACTH: endogenous human ACTH, reported as highly unstable due to proteolytic degradation (SYSMEHFRWGKPVGKKRRPVKVYPNGAEDESAEAFPLEF; Corticotropin; UniProt P01189 138-176, looked up) |  |  |  |  |  |  |  |  |  |  |  |  |  |  |  |  | ≥ 4 |
